Results published in patent US9688672B2, “3-pyrimidin-4-yl-oxazolidin-2-ones as inhibitors of mutant IDH” (NOVARTIS AG, priority 2013, dated 2017).

Legend:
[1] = Metabolic stability in liver microsomes, Method II; format: in vitro ADME
Protocol: The in vitro metabolic stability assay was performed in a 96-deep-well plate with incubation at 37° C. 10 mM DMSO stock solution of the test compound was diluted 1:20 in acetonitrile, followed by an additional 1:10 dilution in 100 mM potassium phosphate buffer (KPi) to yield a final reaction concentration of 1 μM. […] 290 μL of cofactor solution (1.7 mM NADPH, 1.7 mM UDPGA, 3.4 mM MgCl in 100 mM KPi) was added to 200 μL of microsomal protein for a final volume of 490 μL. The reaction was initiated by adding 10 μL of the 50 μM test solution to 490 μL of microsomal protein for a final volume 500 μL enzyme-compound mixture.
At 0, 5, 15 and 30 minute time points in the reaction, reaction aliquots (75 μL) were removed and the reactions were terminated by the addition of 50:50 acetonitrile/methanol solution (75 μL) containing a mass spectrometry internal standard (0.5 μM glyburide). The samples were centrifuged at 4000 RPM for 10 minutes. […] The supernatants solution were analyzed by UPLC/MS/MS for quantitation of parent remaining compound under multiple reactions monitoring mode (MRM) in positive mode. […]

[2] = Metabolic stability in liver microsomes, Method II; format: in vitro ADME; remark: listed apart in the source
Protocol: Determination of Metabolic Stability in Liver Microsomes—Method II
The in vitro metabolic stability assay was performed in a 96-deep-well plate with incubation at 37° C. 10 mM DMSO stock solution of the test compound was diluted 1:20 in acetonitrile, followed by an additional 1:10 dilution in 100 mM potassium phosphate buffer (KPi) to yield a final reaction concentration of 1 μM. Immediately prior to the start of the experiment, respective animal or human liver microsomes (male Sprague-dawley rat, male CD-1 mouse, or pooled human liver microsomes) were diluted in 100 mM KPi to 1.25 mg/mL liver microsomal protein. […]
At 0, 5, 15 and 30 minute time points in the reaction, reaction aliquots (75 μL) were removed and the reactions were terminated by the addition of 50:50 acetonitrile/methanol solution (75 μL) containing a mass spectrometry internal standard (0.5 μM glyburide). […] The supernatants solution were analyzed by UPLC/MS/MS for quantitation of parent remaining compound under multiple reactions monitoring mode (MRM) in positive mode. […]
The injection volume was 5 μL. Compounds were detected using Analyst 1.5.1 software which collects intensity data for all fragments related to the molecular weight of the test compound. […]
The intrinsic clearance value, CLint (expressed as μL/min/mg microsomal protein) calculation is shown below: […]

- Mouse microsomal stability CLint [1]: 167.04 µL/min/mg
- Human microsomal stability CLint [2]: 30.44 µL/min/mg
SMILES: C[C@H](Nc1ncc(F)c(N2C(=O)OC[C@@H]2[C@H](C)F)n1)c1cn(-c2ccc(Cl)cc2F)cn1 [Example 477, (R)-3-(2-(((S)-1-(1-(4-chloro-2-fluorophenyl)-1H-imidazol-4-yl)ethyl)amino)-5-fluoropyrimidin-4-yl)-4-((S)-1-fluoroethyl)oxazolidin-2-one]
